Values belong to the molecule of their own block, whether it stands above or below them.
Experiments:
MDA-MB-231 = assay: Cell cycle analysis (G2/M arrest, PI staining, flow cytometry), MDA-MB-231; format: cell-based; details: Homo sapiens; MDA-MB-231; overnight incubation, PI staining, flow cytometry; mean of 3 ± SEM; read-out: EC50 (G2/M arrest)
Experimental: Fig. 2 Antimitotic activity of WEHI-7326: cancer cell lines and effects on tubulin polymerization. a Dose-dependent antimitotic activity of WEHI-7326, nocodazol and taxol in tumor cell lines SW480 (colorectal) and MDA-MB-231 (breast). Data are presented as percentage of cells in G2/M after overnight incubation with increasing concentrations of inhibitors and PI staining followed by flow cytometry analysis. Mean average of 3 independent experiments ±SEM. b EC50 values (nM) for G2/M arrest on SW480 and MDA-MB-231 cell lines, given as mean average of 3 independent experiments ±SEM. c Western blot analysis of mitotic arrest in SW480 and MDA-MB-231 cells treated with EC50 concentrations of WEHI-7326 or Paclitaxel as marked by expression of phosho-S10 Histone H3 (p-HH3 S10), at different timepoints post treatment. Expression of β-actin provided as loading control. d Cell cycle analysis of LIM1899 cells 72 h post treatment with increasing concentrations of WEHI-7326 as measured by PI staining for DNA content followed by flow cytometry analysis. Sub-G1 represents apoptotic fractions and >4 N cell fractions of mitotic slippage. e Immunofluorescence confocal microscopy of tubulin polymerization in SW480 cells treated by various agents. […] Representative blot of 3 independent experiments. g Tubulin polymerization was assessed in vitro over time using a fluorescence-based tubulin polymerization assay (BK011P). […] Polymerization was measured by excitation at 360 nm and emission at 420 nm. […]
Cells in log growth were supplemented with fresh medium with either vehicle (control) or compound at the stated final concentrations. […] After 1 h incubation at room temperature in the dark, cells were analyzed on a FACScan (Becton and Dickinson) in CellQuest. The percentage of cells in each phase of the cell cycle was determined using ModFit software (Verity, http://www.vsh.com). Early and late apoptotic responses elicited by WEHI-7326 were assessed using Dead Cell Apoptosis Kit (ThermoFisher Scientific) with Annexin V FITC and PI following manufacturer’s instructions. […]

SW480 [1] = assay: Cell cycle analysis (G2/M arrest, PI staining, flow cytometry), SW480; format: cell-based, human; details: SW480; for EC50: Homo sapiens, overnight incubation, PI staining, flow cytometry, mean of 3 ± SEM, read-out: EC50 (G2/M arrest)
Experimental: Fig. 2 Antimitotic activity of WEHI-7326: cancer cell lines and effects on tubulin polymerization. a Dose-dependent antimitotic activity of WEHI-7326, nocodazol and taxol in tumor cell lines SW480 (colorectal) and MDA-MB-231 (breast). Data are presented as percentage of cells in G2/M after overnight incubation with increasing concentrations of inhibitors and PI staining followed by flow cytometry analysis. Mean average of 3 independent experiments ±SEM. b EC50 values (nM) for G2/M arrest on SW480 and MDA-MB-231 cell lines, given as mean average of 3 independent experiments ±SEM. c Western blot analysis of mitotic arrest in SW480 and MDA-MB-231 cells treated with EC50 concentrations of WEHI-7326 or Paclitaxel as marked by expression of phosho-S10 Histone H3 (p-HH3 S10), at different timepoints post treatment. Expression of β-actin provided as loading control. d Cell cycle analysis of LIM1899 cells 72 h post treatment with increasing concentrations of WEHI-7326 as measured by PI staining for DNA content followed by flow cytometry analysis. Sub-G1 represents apoptotic fractions and >4 N cell fractions of mitotic slippage. e Immunofluorescence confocal microscopy of tubulin polymerization in SW480 cells treated by various agents. Cells were incubated for 24 h with control (0.1% DMSO), nocodazole (1 μM), paclitaxel (1 μM), myoseverin B (1 μM) or WEHI-7326 (1 μM). Cells were fixed and stained with β-tubulin antibody (green) and DAPI (DNA; blue) and phalloidin (actin, red). Shown are single confocal sections and enlarged areas (3x) to highlight changes in microtubule network; scale bar = 20 μm. Representative images from 2 independent experiments. f Cellular tubulin polymerization assay in cells: SW480 cells were incubated overnight with paclitaxel, myoseverin B or WEHI-7326, then processed to detect fractions of polymerized (P) and soluble (S) tubulin by western blot analysis. Representative blot of 3 independent experiments. g Tubulin polymerization was assessed in vitro over time using a fluorescence-based tubulin polymerization assay (BK011P). Tubulin was incubated with control (DMSO), paclitaxel (3 μM), nocodazole (15 μM) and WEHI-7326 at indicated concentrations (in DMSO). Polymerization was measured by excitation at 360 nm and emission at 420 nm. Representative graph of 3 independent experiments performed in duplicates. […]
Cells in log growth were supplemented with fresh medium with either vehicle (control) or compound at the stated final concentrations. […] After 1 h incubation at room temperature in the dark, cells were analyzed on a FACScan (Becton and Dickinson) in CellQuest. The percentage of cells in each phase of the cell cycle was determined using ModFit software (Verity, http://www.vsh.com). Early and late apoptotic responses elicited by WEHI-7326 were assessed using Dead Cell Apoptosis Kit (ThermoFisher Scientific) with Annexin V FITC and PI following manufacturer’s instructions. Cells were incubated 24 h with 6-point, 4-fold titration of WEHI-7326, washed twice with cold 1X PBS, resuspended in 1X Annexin Binding Buffer, incubated with FITC Annexin V and PI for 15 mins at RT in the dark and subsequently analyzed by flow cytometry.

SW480 [2] = assay: Cell growth inhibition assay, SW480; format: cell-based, human; details: SW480 colon cancer cell line in vitro
Experimental: Cells were plated at a density of between 500 to 5000 cells per well for adherent cell lines depending on doubling time, and 15,000 cells per well for lymphoblastic leukemia cell lines, in a 96-well plate in 200 μl of growth media. Plates were incubated overnight at 37 °C before adding the inhibitors. Inhibitors were serially diluted from the stock solutions in complete medium and added to the cells. Incubation in the presence of inhibitors was continued for […]. Cell viability was assessed by the AlamarBlue (Invitrogen) or CellTiterBlue/Glo (Promega) method according to manufacturer’s instructions. The curve fits and IC50 values were generated in PRISM (GraphPad, San Diego, CA).
a Chemical structures of the triazine-based anti-mitotics used in this study. b Dose-dependent antiproliferative activity of key derivatives and comparison with commonly used anti-mitotics in SW480 cell line: Data shown is cell viability (as measured by CellTiterGlo) after 72 h relative to untreated control cells. Shown is mean of 3 independent experiments performed in duplicate +/- SEM. c Dose-dependent cell cycle analysis of key derivatives of WEHI-7326 development in SW480 cell line. Data are presented as percentage of cells in G2/M or subG0 after 24 h incubation with titration of inhibitors as assessed by PI staining and flow cytometry. Mean average of 3 experiments +/- SEM. d Comparison of IC50 and EC50 values of triazine compounds and anti-mitotic drugs in SW480 cell line: inhibition of cellular proliferation and cell cycle arrest in G2/M. IC50 and EC50 values are the mean of 3 independent experiments run in duplicates +/- SEM (n.d. = not determined). e HepG2 cytotoxic assay: cell viability assay after 48 h, normalised to 0.4% DMSO (100% viability) and 2 μM bortezomib (0% viability). The data is the mean average of 2 experiments +/- SD.

[3] = test system: MDA-MB-231 LNA DRE (docetaxel resistant breast cancer) xenograft; assay: Orthotopic MDA-MB-231 LNA-DRE xenograft; format: in vivo, Balb/c nude mice; details: docetaxel 10 mg/kg weekly i.v., WEHI-7326 30 mg/kg biweekly i.v.
Experimental: LoVo (4 × 10^6), PC3 (3 × 10^6) or MDA-MB-231 LNA DRE (10^6) cells were collected by trypsination and injected with 50 μl 1:1 PBS:Matrigel (v/v) subcutaneously on the right flank of 18 female (LoVo), 40 male (PC3) or into 4th mammary fat pad of 40 female (MDA231) Balb/c nude mice. Tumor growth was monitored and average tumor size at commencement of dosing was 100 mm^3. Mice were randomized into 3 arms of each 5 (LoVo), 10 (PC3) or 12 (MDA23) mice respectively and treatment with vehicle (saline), WEHI-7326 (biweekly) or docetaxel (weekly) was administered via tail vein injection. Tumor volumes were measured at least twice weekly with calipers and the experiments were terminated when tumors in the control group started exceeding 1500 mm^3. For LoVo, both vehicle and 25 mg/kg WEHI-7326 groups were harvested 24 h, but 20 mg/kg WEHI-7326 group harvested 1 h post final dose. For PC3, docetaxel group was not harvested in an attempt to grow out resistant tumors.

322 T TNBC PDX = assay: TNBC PDX model 322T; format: in vivo, NOD-SCID-IL2Rγc–/– mice; details: 322 T PDX; docetaxel 10 mg/kg i.p. once; WEHI-7326 20 mg/kg i.v. biweekly
Experimental: (§1) Cohorts of about 30 female mice were seeded with thawed single cell suspensions of early passage human breast tumors (passage 2 or 3). Briefly, 150,000–250,000 cells were resuspended in 10 µl of transplantation buffer (50% fetal calf serum, 10% of a 0.04% trypan blue solution and 40% PBS) and growth-factor-reduced Matrigel [BD] at a ratio of 3:1, and injected into the cleared mammary fat pads of 3- or 4-week-old NOD-SCID-IL2Rγc–/– female mice. Mice were monitored for tumor development three times weekly and tumor size measured using digital Vernier calipers. Tumor volume was estimated by measuring the minimum and maximum tumor diameters using the formula: (minimum diameter)^2 x (maximum diameter)/2. Once tumors arose, mice were randomized into treatment arms. Treatment was initiated when the tumor volume reached 80–120 mm^3. Randomization and tumor measurements were managed using the Study Director software (v 3.0, studylog). Mice were sacrificed at the first measurement where tumor volume exceeded 600 mm^3, or if their health deteriorated for reasons other than disease progression or drug toxicity (censored event).
(§2) Mice were treated with either docetaxel (10 mg/kg; i.p.; once), cisplatin (4 mg/kg; i.p.; once) or WEHI-7326 (20 mg/kg; twice a week (Monday and Thursday); i.v.). Vehicle treated mice were administered with the vehicle for WEHI-7326. Docetaxel was resuspended at 2 mg/ml in PBS:Tween-80:ethanol = 90:5:5 (v/v/v). WEHI-7326 was resuspended at 2 mg/ml in saline.

MH792 LUSC PDX = assay: LUSC PDX model MH792; format: in vivo, NOD-SCID-IL2Rγc–/– mice; details: MH792 PDX; WEHI-7326 20 mg/kg i.v. biweekly; docetaxel 10 mg/kg i.p. once
Experimental: (§3) LUSC PDXs were generated as described in[25]. PDXs at passage 4 were defrosted and washed with PBS before counting. 200,000 to 500,000 cells were then injected in a 50:50 PBS:Matrigel mix into the flanks of NOD-SCID-IL2Rγc–/– male mice. Tumors were measured twice weekly with calipers and treatment started when tumors were between 70–120 mm^3. Mice were assigned to treatment groups based on average tumor volume per group. Mice were culled when tumors reached a volume of 600 mm^3.

AH406 LUSC PDX = assay: LUSC PDX model AH406; format: in vivo, NOD-SCID-IL2Rγc–/– mice; details: WEHI-7326 20 mg/kg i.v. biweekly, docetaxel 10 mg/kg i.p. once
Experimental: as §3

24 T TNBC PDX = assay: TNBC PDX model 24T; format: in vivo, NOD-SCID-IL2Rγc–/– mice; details: 24 T PDX; docetaxel 10 mg/kg i.p. once; WEHI-7326 20 mg/kg i.v. biweekly
Experimental: as §1, §2

Structure (SMILES): COC(=O)Nc1nc2ccc(C(=O)c3cccs3)cc2[nH]1 [Nocodazol, nocodazole, reference compound]
EC50 (MDA-MB-231): 37.2 ± 7.2 nM
EC50 (SW480 [1]): 57.4 ± 5.9 nM

EC50 (MDA-MB-231): 5.6 ± 3.1 nM
EC50 (SW480 [1]): 39.3 ± 4.1 nM
Structure (SMILES): CC(=O)O[C@H]1C(=O)[C@@]2(C)[C@H]([C@H](OC(=O)c3ccccc3)[C@]3(O)C[C@H](OC(=O)[C@H](O)[C@@H](NC(=O)c4ccccc4)c4ccccc4)C(C)=C1C3(C)C)[C@]1(OC(C)=O)CO[C@@H]1C[C@@H]2O [Paclitaxel, paclitaxel, reference compound]

Structure (SMILES): COc1ccc(CNc2nc(NCc3ccc(OC)cc3)nc(NN3CC(=O)NC3=O)n2)cc1 [compound 6]
Concentration inhibiting proliferation (SW480 [2]): at or below micromolar concentration
G2/M cell cycle arrest (SW480 [1]): strong G2/M cell cycle arrest

Structure (SMILES): CC(=O)O[C@@]12CO[C@@H]1C[C@H](O)[C@@]1(C)C(=O)[C@H](O)C3=C(C)[C@@H](OC(=O)[C@H](O)[C@@H](NC(=O)OC(C)(C)C)c4ccccc4)C[C@@](O)([C@@H](OC(=O)c4ccccc4)[C@H]21)C3(C)C [docetaxel, reference compound]
Tumor growth inhibition (TGI) [3]: 70%
Survival time (322 T TNBC PDX): 7 days
Median survival (MH792 LUSC PDX): 22 days
Median survival (AH406 LUSC PDX): 24 days
Survival time (24 T TNBC PDX): 11 days
